Reference: US20050059585A1, “Methionine aminopeptidase-2 inhibitors and methods of use thereof” (Praecis Pharmaceuticals Inc., priority 2000, published 2005)
pIC50: −log10 of the molar value. Like-named read-outs stand apart in the source and are kept apart here. Square brackets hold non-standard residues; d marks the D form. Peptide text beside a SMILES is read from it. * marks the point of attachment. X2 = CO[C@@H]1[C@H](OC(=O)*)CC[C@]2(CO2)[C@H]1[C@@]1(C)O[C@@H]1CC=C(C)C; X3 = CO[C@@H]1[C@H](OC(=O)*)CC[C@]2(CO2)[C@H]1[C@@]1(C)O[C@@H]1CCC(C)C; Sar = CNCC(=O)O

Legend:
[1] = system: bovine aortic endothelial cell; experiment: bovine aortic endothelial cell growth assay (Baec assay); format: cell-based; settings: for IC50: read-out: IC50 (pM), Baec Assay; for pIC50: read-out: IC50, Baec Assay
Description: The angiogenesis inhibitor compounds of the invention were tested for their ability to modulate human endothelial cell growth and for their ability to modulate the activity of MetAP2. The MetAP2 enzyme assay was performed essentially as described in Turk, B. et al. (1999) Chem. & Bio. 6: 823-833, the entire contents of which are incorporated herein by reference. The bovine aortic endothelial cell growth assay (Baec assay) was performed essentially as described in Turk, B. et al. (supra), the entire contents of which are incorporated herein by reference.

[2] = system: human umbilical vein endothelial cells (HUVEC); experiment: human endothelial cell growth assay (Huvec assay); format: cell-based; settings: for IC50: Homo sapiens, HUVEC, read-out: IC50 (pM), Huvec Assay; for pIC50: read-out: IC50, Huvec Assay
Description: For the human endothelial cell growth assay, human umbilical vein endothelial cells (HUVEC) were maintained in Clonetics endothelial growth medium (EGM) in a 37° C. humidified incubator. Cells were detached with trypsin and pelleted by centrifugation at 300×g for 5 minutes at room temperature. HUVEC were added to 96-well plates at 5,000 cells/well. After incubating for 6 hours, the medium was replaced with 0.2 ml fresh EGM supplemented with 0.5 nM bFGF and the desired concentration of test angiogenesis inhibitor compound. Test angiogenesis inhibitor compounds were initially dissolved in ethanol at stock concentrations of either 10 mM or 0.1 mM, and subsequently diluted in EGM to obtain concentrations from […] to 10 μM. After 48 hours at 37° C., the medium was replaced with fresh bFGF-supplemented EGM and test angiogenesis inhibitor compound. Following incubation for an additional 48 hours at 37° C. MTT (3-[4,5-dimethylthiazol-2-yl]-2,5-diphenyl-tetrazolium bromide) was added to 1 mg/ml. After 2-4 hours at 37° C. the medium was replaced with 0.1 ml/well isopropanol. The plates were placed on a shaker for 15 minutes at room temperature and analyzed in a Labsystems Multiskan plate spectrophotometer at an optical density of 570 nm.

MetAP2 = biological target: T1, MetAP2 (Homo sapiens, UniProt P50579); experiment: MetAP2 enzyme assay; format: biochemical
T1 construct: made in house; host or cells: insect cells
T1 sequence (P50579 whole entry): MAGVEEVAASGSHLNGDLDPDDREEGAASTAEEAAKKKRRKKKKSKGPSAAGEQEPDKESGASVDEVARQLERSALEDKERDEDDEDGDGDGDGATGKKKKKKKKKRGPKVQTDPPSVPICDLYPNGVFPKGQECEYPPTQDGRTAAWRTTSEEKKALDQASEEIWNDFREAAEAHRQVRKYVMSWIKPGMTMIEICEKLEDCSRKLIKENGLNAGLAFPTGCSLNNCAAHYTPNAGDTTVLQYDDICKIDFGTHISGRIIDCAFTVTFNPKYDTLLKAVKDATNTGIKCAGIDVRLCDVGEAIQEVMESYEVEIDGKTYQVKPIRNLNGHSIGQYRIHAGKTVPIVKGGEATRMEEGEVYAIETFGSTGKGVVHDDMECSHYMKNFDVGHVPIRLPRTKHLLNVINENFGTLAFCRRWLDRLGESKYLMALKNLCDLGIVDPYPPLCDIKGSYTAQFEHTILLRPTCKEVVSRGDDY
Description: Finally, the ability of the angiogenesis inhibitor compounds of the invention to modulate the activity of MetAP2 may be tested as follows.. Recombinant human MetAP2 may be expressed and purified from insect cells as described in Li and Chang, (1996) Biochem. Biophys. Res. Commun. 227:152-159. Various amounts of angiogenesis inhibitor compound is then added to buffer H (10 mM Hepes, pH 7.35, 100 mM KCl, 10% glycerol, and […]) containing lnM purified recombinant human MetAP2 and incubated at 37° C. for 30 minutes. To start the enzymatic reaction a peptide containing a methionine residue, e.g., Met-Gly-Met, is added to the reaction mixture (to a concentration of 1 mM). Released methionine is subsequently quantified at different time points (e.g., at 0, 2, 3, and 5 minutes) using the method of Zou et al. (1995) Mol. Gen Genetics 246:247-253).
The angiogenesis inhibitor compounds of the invention were tested for their ability to modulate human endothelial cell growth and for their ability to modulate the activity of MetAP2. The MetAP2 enzyme assay was performed essentially as described in Turk, B. et al. (1999) Chem. & Bio. 6: 823-833, the entire contents of which are incorporated herein by reference. […]

For `COC(=O)[C@H](NC(=O)O[C@@H]1CC[C@]2(CO2)[C@@H]([C@@]2(C)O[C@@H]2CC=C(C)C)[C@@H]1OC)c1ccccc1` [Example 4, {(3R, 4S, 5S, 6R)-5-Methoxy-4-[(2R, 3R )-2-methyl-3-(3-methyl-but-2-enyl)-oxiranyl]-1-oxa-spiro[2.5]oct-6-yloxycarbonylamino}-phenyl-acetic acid methyl ester], the IC50 ([1]; Bos taurus, BAEC) was 35 pM and the IC50 [2] was 36 pM.

Work on `CO[C@@H]1[C@H](OC(=O)N[C@@H](C(N)=O)C(C)C)CC[C@]2(CO2)[C@H]1[C@@]1(C)O[C@@H]1CCC(C)C` [Example 6, (1-Carbamoyl-2-methyl-propyl)-carbamic acid-(3R, 4S, 5S, 6R )-5-methoxy-4-[(2R, 3R)-2-methyl-3-(3-methyl-butyl)-oxiranyl]-1-oxa-spiro[2.5]oct-6-yl ester] yielded an IC50 ([1]; Bos taurus, BAEC) of 220 pM.

`COC(=O)[C@H](NC(=O)O[C@@H]1CC[C@]2(CO2)[C@@H]([C@@]2(C)O[C@@H]2CC=C(C)C)[C@@H]1OC)C(C)(C)C` [Example 8, 2-{(3R, 4S, 5S, 6R )-5-Methoxy-4-[(2R, 3R)-2-methyl-3-(3-methyl-but-2-enyl)-oxiranyl]-1-oxa-spiro[2.5]oct-6-yloxycarbonylamino}-3,3-dimethyl-butyric acid methyl ester] showed an IC50 ([1]; Bos taurus, BAEC) of 313 pM.

`COC(=O)[C@H](NC(=O)O[C@@H]1CC[C@]2(CO2)[C@@H]([C@@]2(C)O[C@@H]2CC=C(C)C)[C@@H]1OC)C1CCCCC1` [Example 9, Cyclohexyl-2-{(3R, 4S, 5S, 6R )-5-Methoxy-4-[(2R, 3R)-2-methyl-3-(3-methyl-but-2-enyl)-oxiranyl]-1-oxa-spiro[2.5]oct-6-yloxycarbonylamino}-acetic acid methyl ester] was tested, and the IC50 ([1]; Bos taurus, BAEC) was 165 pM.

`CCC(C)C(NC(=O)O[C@@H]1CC[C@]2(CO2)[C@@H]([C@@]2(C)O[C@@H]2CC=C(C)C)[C@@H]1OC)C(=O)OC` (some centres unmarked) [Example 10] gave an IC50 ([1]; Bos taurus, BAEC) of 179 pM.

In the case of `CO[C@@H]1[C@H](OC(=O)N[C@@H](C(=O)N[C@@H](CO)C(N)=O)C(C)C)CC[C@]2(CO2)[C@H]1[C@@]1(C)O[C@@H]1CC=C(C)C` [Example 11], the pIC50 ([1]; Bos taurus, BAEC) was < 7.00.

In the case of `CO[C@@H]1[C@H](OC(=O)NCC(=O)N[C@@H](CCCNC(=N)N)C(=O)NC[C@@H](O)N[C@@H](CC(=O)O)C(=O)N[C@@H](CO)C(=O)N2CCCC2C(N)=O)CC[C@]2(CO2)[C@H]1[C@@]1(C)O[C@@H]1CC=C(C)C` (some centres unmarked) [Example 13], the pIC50 (MetAP2) was 8.54 and the pIC50 [2] was < 5.00.

`CO[C@@H]1[C@H](OC(=O)NCC(=O)N[C@@H](CCCNC(=N)N)C(=O)NCC(=O)N[C@@H](CC(=O)O)C(N)=O)CC[C@]2(CO2)[C@H]1[C@@]1(C)O[C@@H]1CCC(C)C` [Example 15] (X3-GRGD-NH2) was tested, and the pIC50 [2] was < 5.00.

In the case of `CO[C@@H]1[C@H](OC(=O)NCC(=O)N2CCC[C@H]2C(=O)N[C@@H](CC(C)C)C(=O)N(C)CC(=O)O)CC[C@]2(CO2)[C@H]1[C@@]1(C)O[C@@H]1CC=C(C)C` [Example 18, N-Carbamoyl (ID#26) (3R, 4S, 5S, 6R) 5-methoxy-4-[(2R,3R)2-methyl-3-(3methyl-but-2-enyl)-oxiranyl]-1-oxa-spiro[2.5]oct-6-yl ester] (X2-GPL[Sar]-OH), the pIC50 [2] was < 7.00.

`CO[C@@H]1[C@H](OC(=O)NCC(=O)N2CCC[C@H]2C(=O)N[C@@H](CC(C)C)C(=O)NCC(=O)O)CC[C@]2(CO2)[C@H]1[C@@]1(C)O[C@@H]1CC=C(C)C` [Example 19, N-Carbamoyl (ID#27) (3R, 4S, 5S, 6R) 5-methoxy-4-[(2R,3R)2-methyl-3-(3-methyl-but-2-enyl)-oxiranyl]-1-oxa-spiro [2.5]oct-6-yl ester] (X2-GPLG-OH) was tested, and the pIC50 [1] was < 7.00 and the pIC50 [2] was < 7.00.

`CO[C@@H]1[C@H](OC(=O)N[C@@H](C(=O)O)C(C)C)CC[C@]2(CO2)[C@H]1[C@@]1(C)O[C@@H]1CC=C(C)C` [Example 24, 2-{(3R, 4S, 5S, 6R)-5-Methoxy-4-[(2R, 3R)-2-methyl-3-(3-methyl-but-2-enyl)-oxiranyl]-1-oxa-spiro[2.5]oct-6-yloxycarbonylamino}-3-methyl-butyric acid] showed an IC50 [2] of 5440 pM.
